Measurements as given in ChEMBL document CHEMBL1201862, “PubChem BioAssay data set” (2004).
Calls of active or inactive are those of the source.

Assays:
[1] = test system: HEK293; assay: cytotoxicity in HEK293T NF-kB-Luc cells, SAR follow-up, cytotoxicity control for NF-kB activator project, cell-based, resazurin fluorescence (AID 493251); type: functional; conditions: Homo sapiens
[2] = biological target: T1, Small ubiquitin-related modifier 1 (Homo sapiens, UniProt P63165); assay: inhibitors of SUMO1 peptide binding, dose response, biochemical, fluorescence polarization, uHTS hits (AID 624382); type: functional; conditions: read-out: IC50_Mean
T1 sequence (P63165 whole entry): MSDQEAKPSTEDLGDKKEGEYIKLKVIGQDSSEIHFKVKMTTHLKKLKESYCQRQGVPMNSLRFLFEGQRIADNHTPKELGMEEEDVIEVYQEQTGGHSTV

[3] = biological target: T1, Small ubiquitin-related modifier 1; assay: inhibitors of SUMO1 partner interactions, dose response, biochemical, FRET (AID 624383); type: functional; conditions: read-out: IC50_Mean
[4] = biological target: T2, SUMO-activating enzyme (Homo sapiens, UniProt Q9UBT2); assay: SUMOylation inhibitor hit validation, confirmation, SUMOylation inhibitor project, biochemical, AlphaScreen (AID 2018); type: functional
T2 sequence (Q9UBE0 whole entry): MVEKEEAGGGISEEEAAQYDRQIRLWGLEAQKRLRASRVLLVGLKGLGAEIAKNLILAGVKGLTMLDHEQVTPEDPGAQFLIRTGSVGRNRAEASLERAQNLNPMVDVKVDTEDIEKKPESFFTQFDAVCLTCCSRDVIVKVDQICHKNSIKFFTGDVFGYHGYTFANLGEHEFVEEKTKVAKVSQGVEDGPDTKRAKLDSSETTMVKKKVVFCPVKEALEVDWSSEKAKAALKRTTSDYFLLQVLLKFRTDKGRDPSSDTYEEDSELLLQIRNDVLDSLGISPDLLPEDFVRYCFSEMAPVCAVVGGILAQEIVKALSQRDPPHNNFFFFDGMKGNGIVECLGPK
T2 sequence (Q9UBT2 whole entry): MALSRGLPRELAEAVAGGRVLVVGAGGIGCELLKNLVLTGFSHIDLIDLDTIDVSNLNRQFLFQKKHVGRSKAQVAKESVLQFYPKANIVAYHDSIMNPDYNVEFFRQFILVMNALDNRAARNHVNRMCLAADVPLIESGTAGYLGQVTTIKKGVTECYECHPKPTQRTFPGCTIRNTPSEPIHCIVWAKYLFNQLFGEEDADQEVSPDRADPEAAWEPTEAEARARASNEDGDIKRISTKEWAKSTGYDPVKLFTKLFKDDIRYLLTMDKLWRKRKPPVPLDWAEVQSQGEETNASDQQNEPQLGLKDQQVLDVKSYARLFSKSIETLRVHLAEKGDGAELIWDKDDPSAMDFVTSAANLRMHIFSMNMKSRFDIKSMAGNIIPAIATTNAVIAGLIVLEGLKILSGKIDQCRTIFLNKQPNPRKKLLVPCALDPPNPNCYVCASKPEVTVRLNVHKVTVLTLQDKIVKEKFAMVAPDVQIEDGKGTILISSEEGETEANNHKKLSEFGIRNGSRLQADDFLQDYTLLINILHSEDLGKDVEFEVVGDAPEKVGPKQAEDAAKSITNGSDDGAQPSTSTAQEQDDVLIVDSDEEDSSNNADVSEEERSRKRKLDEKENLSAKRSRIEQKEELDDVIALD

[5] = biological target: T2, SUMO-activating enzyme; assay: inhibitors of in vitro SUMOylation cascade, primary screen, biochemical, HTRF, uHTS (AID 2006); type: protein-complex assay
[6] = biological target: DNA (cytosine-5)-methyltransferase 1 (Homo sapiens, UniProt P26358); assay: DNMT1 methyltransferase inhibitors, confirmation, biochemical, fluorescent molecular beacon (AID 602386); type: functional
Chain of DNA (cytosine-5)-methyltransferase 1 (P26358 whole entry): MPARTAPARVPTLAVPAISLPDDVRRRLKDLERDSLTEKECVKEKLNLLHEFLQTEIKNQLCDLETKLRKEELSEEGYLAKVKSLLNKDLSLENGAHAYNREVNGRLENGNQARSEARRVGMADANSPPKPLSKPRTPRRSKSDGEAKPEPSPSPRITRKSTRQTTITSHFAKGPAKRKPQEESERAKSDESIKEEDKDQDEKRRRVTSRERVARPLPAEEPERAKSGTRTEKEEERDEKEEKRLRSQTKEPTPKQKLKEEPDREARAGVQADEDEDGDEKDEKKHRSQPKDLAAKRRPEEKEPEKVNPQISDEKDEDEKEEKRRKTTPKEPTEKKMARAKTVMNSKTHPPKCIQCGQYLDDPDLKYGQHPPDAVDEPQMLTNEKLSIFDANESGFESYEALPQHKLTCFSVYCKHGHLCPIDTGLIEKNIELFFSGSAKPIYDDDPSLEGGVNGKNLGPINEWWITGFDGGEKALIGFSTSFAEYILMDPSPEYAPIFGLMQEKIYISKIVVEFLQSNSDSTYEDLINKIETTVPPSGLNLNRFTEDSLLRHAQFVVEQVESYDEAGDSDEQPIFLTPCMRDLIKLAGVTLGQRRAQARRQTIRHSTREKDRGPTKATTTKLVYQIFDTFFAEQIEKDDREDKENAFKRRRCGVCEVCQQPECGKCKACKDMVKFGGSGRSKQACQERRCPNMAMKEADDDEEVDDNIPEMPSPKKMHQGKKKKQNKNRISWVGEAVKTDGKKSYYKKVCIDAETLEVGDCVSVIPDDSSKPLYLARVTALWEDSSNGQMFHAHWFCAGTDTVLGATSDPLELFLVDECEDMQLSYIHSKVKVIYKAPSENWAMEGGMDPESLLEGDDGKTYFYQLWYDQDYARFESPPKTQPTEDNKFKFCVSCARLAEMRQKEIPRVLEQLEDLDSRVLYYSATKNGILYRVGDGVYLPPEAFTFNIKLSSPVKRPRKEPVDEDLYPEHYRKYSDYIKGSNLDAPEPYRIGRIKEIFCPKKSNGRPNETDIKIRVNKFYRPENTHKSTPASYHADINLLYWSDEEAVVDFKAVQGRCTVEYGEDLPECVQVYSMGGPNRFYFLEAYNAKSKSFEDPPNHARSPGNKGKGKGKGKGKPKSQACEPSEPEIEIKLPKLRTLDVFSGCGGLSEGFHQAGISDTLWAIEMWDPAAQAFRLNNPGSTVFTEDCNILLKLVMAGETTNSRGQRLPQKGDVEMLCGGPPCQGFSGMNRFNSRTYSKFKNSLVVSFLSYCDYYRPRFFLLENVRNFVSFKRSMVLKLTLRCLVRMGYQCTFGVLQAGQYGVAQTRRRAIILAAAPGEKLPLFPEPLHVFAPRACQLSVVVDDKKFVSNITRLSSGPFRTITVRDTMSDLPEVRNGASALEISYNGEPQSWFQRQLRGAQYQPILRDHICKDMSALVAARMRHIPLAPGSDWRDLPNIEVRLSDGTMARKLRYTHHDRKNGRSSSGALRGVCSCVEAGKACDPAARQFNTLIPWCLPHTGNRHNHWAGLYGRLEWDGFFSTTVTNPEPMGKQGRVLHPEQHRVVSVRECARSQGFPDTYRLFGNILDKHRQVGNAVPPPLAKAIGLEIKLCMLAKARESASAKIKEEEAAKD

[7] = test system: HEK293; assay: cells; conditions: Homo sapiens
[8] = test system: Jurkat; assay: antigen receptor-induced NF-kB inhibitors, dose response, Jurkat, luciferase reporter, luminescence, B- and T-cell (AID 489004); type: functional, cell-based; conditions: Homo sapiens;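 further: NF-kB luciferase reporter Jurkat cells stimulated with PMA plus ionomycin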
[9] = cells; type: functional, cell-based; conditions: HEK-CNG
[10] = biological target: T3, Galanin receptor type 3 (Homo sapiens, UniProt O60755); assay: Fluorescence-based cell-based primary high throughput dose response assay to identify antagonists of the Galanin Receptor 3 (GalR3).; type: functional
T3 sequence (O60755 whole entry): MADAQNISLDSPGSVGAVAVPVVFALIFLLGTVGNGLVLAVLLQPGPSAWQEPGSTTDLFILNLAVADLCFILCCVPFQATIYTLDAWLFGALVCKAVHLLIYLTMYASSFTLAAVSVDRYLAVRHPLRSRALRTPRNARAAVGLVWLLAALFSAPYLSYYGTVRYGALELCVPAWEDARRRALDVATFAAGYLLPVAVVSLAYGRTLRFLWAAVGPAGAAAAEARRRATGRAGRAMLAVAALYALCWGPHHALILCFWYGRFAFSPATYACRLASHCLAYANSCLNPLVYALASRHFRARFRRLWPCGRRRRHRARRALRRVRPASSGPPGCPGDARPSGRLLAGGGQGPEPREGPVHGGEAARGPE

[11] = biological target: Tumor necrosis factor (Homo sapiens, UniProt P01375); assay: TNFa-triggered NF-kB activation inhibitors, SAR follow-up, cell-based, revised (AID 2337); type: functional
Chain of Tumor necrosis factor (P01375 whole entry, the tested form may be a part): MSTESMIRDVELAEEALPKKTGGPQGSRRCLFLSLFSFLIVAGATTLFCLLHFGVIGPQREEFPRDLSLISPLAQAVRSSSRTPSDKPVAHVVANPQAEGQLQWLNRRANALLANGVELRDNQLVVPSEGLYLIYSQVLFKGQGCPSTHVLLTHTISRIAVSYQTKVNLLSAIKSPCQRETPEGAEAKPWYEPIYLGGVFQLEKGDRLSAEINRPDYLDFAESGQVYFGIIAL

[12] = biological target: T4, Nucleotide-binding oligomerization domain-containing protein 1 (Homo sapiens, UniProt Q9Y239); assay: NOD1 signaling inhibitors, SAR follow-up, revised (AID 2333); type: functional
T4 sequence (Q9Y239 whole entry): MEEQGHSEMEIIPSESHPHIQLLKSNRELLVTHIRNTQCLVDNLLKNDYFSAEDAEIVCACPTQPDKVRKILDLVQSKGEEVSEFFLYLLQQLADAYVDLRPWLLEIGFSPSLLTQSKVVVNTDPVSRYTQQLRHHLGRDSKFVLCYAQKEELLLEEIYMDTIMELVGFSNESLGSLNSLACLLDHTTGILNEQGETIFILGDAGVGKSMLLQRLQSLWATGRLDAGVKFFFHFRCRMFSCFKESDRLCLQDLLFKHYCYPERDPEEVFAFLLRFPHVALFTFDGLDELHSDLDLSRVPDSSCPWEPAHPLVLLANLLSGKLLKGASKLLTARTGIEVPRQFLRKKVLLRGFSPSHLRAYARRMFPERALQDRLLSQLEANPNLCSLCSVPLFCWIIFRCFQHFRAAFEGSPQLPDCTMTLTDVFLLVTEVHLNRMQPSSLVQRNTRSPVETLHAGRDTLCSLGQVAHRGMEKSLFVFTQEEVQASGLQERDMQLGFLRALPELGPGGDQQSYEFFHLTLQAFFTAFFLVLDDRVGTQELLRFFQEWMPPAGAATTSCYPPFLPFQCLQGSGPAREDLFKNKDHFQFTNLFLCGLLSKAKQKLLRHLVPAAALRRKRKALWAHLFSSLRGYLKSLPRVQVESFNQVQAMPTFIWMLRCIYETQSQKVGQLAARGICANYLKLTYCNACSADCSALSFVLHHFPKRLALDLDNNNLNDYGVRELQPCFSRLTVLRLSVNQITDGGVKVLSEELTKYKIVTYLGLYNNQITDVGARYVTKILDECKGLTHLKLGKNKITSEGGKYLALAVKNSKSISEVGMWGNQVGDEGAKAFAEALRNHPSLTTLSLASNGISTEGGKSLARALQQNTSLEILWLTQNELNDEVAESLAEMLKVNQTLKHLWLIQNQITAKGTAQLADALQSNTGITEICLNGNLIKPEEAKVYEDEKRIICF

[13] = test system: INS1; assay: beta cell apoptosis inhibitors, cytokine rescue, dose response, luminescence, retest (AID 449756); type: functional, cell-based; conditions: Rattus norvegicus;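 further: cell death triggered by IL-1 beta plus TNF-alpha plus IFN-gamma mixture; protective hits raise ATP signal compared with cytokine alone wells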
[14] = cytotoxicity in HEK-293T NF-kB-Luc cells, dose response, cytotoxicity control for B/T-cell NF-kB inhibitor project, cell-based, uHTS hits (AID 489019); type: functional;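 further: IC50 reflects cytotoxicity as loss of cell viability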
[15] = cytotoxicity toward NIH3T3 fibroblasts, dose response, counter-screen, cell-based, ATP luminescence, mouse fibroblasts (AID 2010); type: functional;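 further: cells exposed to compound for about 90 hours before reading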
[16] = biological target: 72 kDa type IV collagenase (Homo sapiens, UniProt P08253); assay: Dose Response validation of uHTS RPN11 inhibitor hits using a MMP-2 Fluorescence assay.; type: functional
Chain of 72 kDa type IV collagenase (P08253 whole entry): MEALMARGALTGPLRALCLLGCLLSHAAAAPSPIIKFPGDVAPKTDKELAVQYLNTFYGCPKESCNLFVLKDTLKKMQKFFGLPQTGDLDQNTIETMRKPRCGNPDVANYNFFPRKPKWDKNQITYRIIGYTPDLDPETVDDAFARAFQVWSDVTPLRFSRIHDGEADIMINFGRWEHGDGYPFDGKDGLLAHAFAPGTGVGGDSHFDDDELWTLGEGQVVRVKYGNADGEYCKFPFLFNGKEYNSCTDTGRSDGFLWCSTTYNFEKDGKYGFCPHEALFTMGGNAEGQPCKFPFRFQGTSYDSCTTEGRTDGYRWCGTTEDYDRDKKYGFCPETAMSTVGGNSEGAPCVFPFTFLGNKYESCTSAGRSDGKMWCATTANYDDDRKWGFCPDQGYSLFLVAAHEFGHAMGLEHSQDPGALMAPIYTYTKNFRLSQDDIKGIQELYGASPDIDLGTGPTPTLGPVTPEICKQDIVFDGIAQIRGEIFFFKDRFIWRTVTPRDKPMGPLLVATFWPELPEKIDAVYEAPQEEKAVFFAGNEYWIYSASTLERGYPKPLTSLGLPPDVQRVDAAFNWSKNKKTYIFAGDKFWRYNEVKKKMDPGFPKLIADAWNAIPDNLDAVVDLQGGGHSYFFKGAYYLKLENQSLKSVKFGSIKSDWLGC

[17] = biological target: Prothrombin (Bos taurus, UniProt P00735); assay: thrombin inhibition, dose response, biochemical, fluorescence polarization, uHTS hits (AID 602369); type: functional
[18] = biological target: 26S proteasome non-ATPase regulatory subunit 14 (Homo sapiens, UniProt O00487); assay: inhibition of proteasome subunit RPN11 – biochemical, fluorescence polarization, uHTS hits, confirmation (AID 602368); type: functional
Chain of 26S proteasome non-ATPase regulatory subunit 14 (O00487 whole entry): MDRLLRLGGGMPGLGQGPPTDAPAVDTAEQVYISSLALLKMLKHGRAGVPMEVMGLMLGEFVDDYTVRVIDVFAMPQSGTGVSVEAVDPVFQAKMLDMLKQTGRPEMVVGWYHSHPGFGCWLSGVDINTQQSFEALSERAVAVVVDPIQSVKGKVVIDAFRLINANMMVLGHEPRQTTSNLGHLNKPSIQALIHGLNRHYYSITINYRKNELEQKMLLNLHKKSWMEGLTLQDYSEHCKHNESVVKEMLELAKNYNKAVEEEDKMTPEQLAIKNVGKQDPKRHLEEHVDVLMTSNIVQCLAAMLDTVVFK

[19] = inhibitors of intracellular T. cruzi replication, confirmation, NIH3T3 host cells, beta-gal luminescence (AID 2044); type: functional, cell-based;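 further: intracellular parasites grown in NIH/3T3 mouse fibroblasts as host cells; luminescent beta-galactosidase reporter signal from transgenic T. cruzi replicating inside host cells; inhibitors lower the luminescence signal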
[20] = biological target: T5, Apoptotic protease-activating factor 1 (Homo sapiens, UniProt O14727); assay: SAR analysis of small molecule Activators of Apaf-1 in a Fluorescent assay.; type: functional; conditions: read-out: EC50_Mean;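 further: caspase-3 cleavage of fluorogenic Rh110 DEVD substrate downstream of apoptosome activation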
T5 sequence (O14727 whole entry): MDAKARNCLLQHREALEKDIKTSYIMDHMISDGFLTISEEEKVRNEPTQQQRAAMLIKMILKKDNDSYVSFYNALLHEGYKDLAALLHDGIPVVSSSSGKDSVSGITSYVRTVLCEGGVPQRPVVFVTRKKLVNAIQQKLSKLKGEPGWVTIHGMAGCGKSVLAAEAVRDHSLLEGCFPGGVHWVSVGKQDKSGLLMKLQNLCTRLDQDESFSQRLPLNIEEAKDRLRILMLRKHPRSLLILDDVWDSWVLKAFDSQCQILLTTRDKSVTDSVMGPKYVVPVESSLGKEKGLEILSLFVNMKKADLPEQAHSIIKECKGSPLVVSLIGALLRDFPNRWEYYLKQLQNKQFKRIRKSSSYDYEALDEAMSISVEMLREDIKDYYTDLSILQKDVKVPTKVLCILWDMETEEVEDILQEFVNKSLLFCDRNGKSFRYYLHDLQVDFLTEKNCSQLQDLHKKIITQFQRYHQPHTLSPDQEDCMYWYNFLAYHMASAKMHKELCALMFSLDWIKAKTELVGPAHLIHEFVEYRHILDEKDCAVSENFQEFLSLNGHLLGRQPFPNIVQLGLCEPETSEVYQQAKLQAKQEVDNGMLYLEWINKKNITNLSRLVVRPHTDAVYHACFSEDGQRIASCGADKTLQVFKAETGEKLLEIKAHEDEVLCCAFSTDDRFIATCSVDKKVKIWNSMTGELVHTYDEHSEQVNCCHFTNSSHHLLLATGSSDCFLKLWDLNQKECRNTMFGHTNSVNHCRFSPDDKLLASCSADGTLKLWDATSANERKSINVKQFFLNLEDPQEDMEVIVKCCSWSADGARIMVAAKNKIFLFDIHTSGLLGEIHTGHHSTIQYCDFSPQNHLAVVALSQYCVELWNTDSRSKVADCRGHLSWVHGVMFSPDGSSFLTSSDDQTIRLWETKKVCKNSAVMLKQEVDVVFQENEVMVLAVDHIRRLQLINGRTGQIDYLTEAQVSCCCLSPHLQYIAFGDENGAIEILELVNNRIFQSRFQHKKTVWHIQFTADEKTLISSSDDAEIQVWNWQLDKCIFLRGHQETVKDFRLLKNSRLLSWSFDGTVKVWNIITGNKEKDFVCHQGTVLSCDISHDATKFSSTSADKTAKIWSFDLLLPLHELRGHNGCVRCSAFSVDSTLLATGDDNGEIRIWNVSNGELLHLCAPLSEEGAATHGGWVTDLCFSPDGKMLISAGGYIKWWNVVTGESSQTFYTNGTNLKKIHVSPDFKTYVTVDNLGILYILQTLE

[21] = biological target: Melanocortin receptor 4 (Homo sapiens, UniProt P32245); assay: MC4R antagonist potency on cAMP, dose response, cell-based, TR-FRET, biased antagonists (AID 602298); type: functional;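 further: antagonist potency against agonist-stimulated cAMP production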
Chain of Melanocortin receptor 4 (P32245 whole entry): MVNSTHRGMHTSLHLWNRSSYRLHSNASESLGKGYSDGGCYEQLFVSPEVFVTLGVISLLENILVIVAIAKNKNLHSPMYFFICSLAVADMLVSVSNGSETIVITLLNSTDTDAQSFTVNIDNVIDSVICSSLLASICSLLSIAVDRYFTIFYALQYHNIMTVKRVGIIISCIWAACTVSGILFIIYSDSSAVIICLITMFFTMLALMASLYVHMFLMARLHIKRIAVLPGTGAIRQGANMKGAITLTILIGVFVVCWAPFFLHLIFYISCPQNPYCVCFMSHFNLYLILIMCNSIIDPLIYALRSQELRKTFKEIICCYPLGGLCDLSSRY

[22] = nonselective inhibitors of cellular cAMP signaling, dose response, counter-screen for MC4R biased antagonist project, cell-based, TR-FRET cAMP detection (AID 602305); type: functional;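 further: U2OS cells stimulated with forskolin near its EC80 as the cAMP inducer; potency is for inhibition of forskolin-stimulated cAMP signaling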
[23] = HEp-2 cell cytotoxicity, dose response, cytotoxicity control for RSV inhibitor project, HTS (AID 2410); type: functional; conditions: human respiratory syncytial virus
[24] = biological target: DNA repair and recombination protein RAD54-like (Homo sapiens, UniProt Q92698); assay: inhibitors of human RAD54 branch migration, confirmation, biochemical, fluorescence, cherry-picked samples, dose series (AID 651657); type: functional
Chain of DNA repair and recombination protein RAD54-like (Q92698 whole entry): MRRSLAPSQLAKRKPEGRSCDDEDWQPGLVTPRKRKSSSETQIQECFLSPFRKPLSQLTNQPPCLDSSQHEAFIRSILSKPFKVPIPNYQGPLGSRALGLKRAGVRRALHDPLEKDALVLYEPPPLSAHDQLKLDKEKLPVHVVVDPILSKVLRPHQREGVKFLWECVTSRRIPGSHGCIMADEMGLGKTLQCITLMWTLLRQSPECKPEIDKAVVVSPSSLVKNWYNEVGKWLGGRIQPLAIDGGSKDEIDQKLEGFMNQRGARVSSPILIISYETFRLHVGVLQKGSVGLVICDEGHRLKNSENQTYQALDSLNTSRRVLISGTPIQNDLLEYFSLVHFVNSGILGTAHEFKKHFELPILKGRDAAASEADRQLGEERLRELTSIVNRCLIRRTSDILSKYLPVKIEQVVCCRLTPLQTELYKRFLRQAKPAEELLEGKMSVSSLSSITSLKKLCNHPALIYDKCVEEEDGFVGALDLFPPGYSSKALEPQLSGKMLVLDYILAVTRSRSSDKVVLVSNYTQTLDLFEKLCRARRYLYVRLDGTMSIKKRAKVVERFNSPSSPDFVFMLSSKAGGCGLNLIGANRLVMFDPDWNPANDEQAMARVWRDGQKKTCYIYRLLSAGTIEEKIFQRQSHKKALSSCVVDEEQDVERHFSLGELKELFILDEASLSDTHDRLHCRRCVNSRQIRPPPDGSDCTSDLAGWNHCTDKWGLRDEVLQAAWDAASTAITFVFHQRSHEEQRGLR

CC(C)(C)c1ccc(-c2noc(CCC(=O)NC3CC3)n2)cc1
IC50 [1]: > 80 µM (inactive)

C/C(=N\NC(=O)c1cc(O)cc(O)c1)c1ccc(NC(=O)Cc2ccccc2)cc1
IC50 [2]: 50.1 µM (inactive)
IC50 [3]: 12 µM (active)
IC50 [4]: 0.74 µM (active)
IC50 [5]: 9.77 µM (active)
IC50 [6]: 4.69 µM (active)

Cn1nccc1C(=O)NC1CCCc2c1cnn2-c1ccc(F)cc1F (centres undefined)
IC50 [7]: > 20 µM (inactive)
IC50 [8]: > 80 µM (inactive)
EC50 [9]: > 29.9 µM (inactive)
IC50 [10]: 0.24 µM (active)
IC50 [11]: 0.712 µM (active)
IC50 [12]: 0.677 µM (active)
AC50 [13]: 1.44 µM (active)
IC50 [14]: > 80 µM (inactive)

O=C(N/N=C\c1ccc(-c2ccc([N+](=O)[O-])cc2)o1)C1COc2ccccc2O1 (centres undefined)
EC50 [15]: > 60 µM (not active)
IC50 [16]: > 100 µM (inactive)
IC50 [17]: 36.4 µM (active)
IC50 [18]: 28.2 µM (active)
EC50 [19]: 0.62 µM (active)

O=C1CC2(CC(c3ccc(Cl)cc3)=NO2)C(=O)N1c1cccc(Cl)c1 (centres undefined)
EC50 [20]: > 100 µM (inactive)

CCOc1ccc(Nc2nc(Cl)nc(N3CCN(c4ccc(OC)cc4)CC3)n2)cc1
IC50 [21]: > 64.6 µM (inactive)
IC50 [22]: > 64.6 µM (inactive)

O=C(/C=C/c1cccs1)N1CCC2(CC1)Oc1ccc(Cl)cc1C(=O)C21CC(c2cccnc2)=NO1 (centres undefined)
IC50 [21]: > 64.6 µM (inactive)
IC50 [22]: > 64.6 µM (inactive)

CCc1ccc(/C=C2\SC(=S)N(CCC(=O)N3CCN(C)CC3)C2=O)cc1
CC50 [23]: 18.6 µM (active)
IC50 [16]: > 100 µM (inactive)
IC50 [17]: 82.7 µM (active)
IC50 [18]: 51.6 µM (active)

Cc1ccc2nc3c(c(N)c2c1)CCN3c1ccccc1
AC50 [24]: 42.5 µM (active)
